Laboratory results from patent US8309546B2, “Morpholinopurine derivatives” (Daiichi Sankyo Company, Limited, priority 2008, dated 2012).
Where “and” joins values, the source holds several entries; their conditions need not be identical. Equal entries are not always repeated.

Columns and labels:
[1] = target: T1, human mTOR (His-tagged mTOR (1362C)) (Homo sapiens, UniProt P42345); assay: mTOR kinase activity inhibition assay; assay type: biochemical; conditions: HTRF, read-out: IC50 against mTOR
T1 construct: the 1362 to 2549 amino acid portion on the C terminus side of human mTOR; His tag (N); made in house
T1 sequence (P42345 1362-2549): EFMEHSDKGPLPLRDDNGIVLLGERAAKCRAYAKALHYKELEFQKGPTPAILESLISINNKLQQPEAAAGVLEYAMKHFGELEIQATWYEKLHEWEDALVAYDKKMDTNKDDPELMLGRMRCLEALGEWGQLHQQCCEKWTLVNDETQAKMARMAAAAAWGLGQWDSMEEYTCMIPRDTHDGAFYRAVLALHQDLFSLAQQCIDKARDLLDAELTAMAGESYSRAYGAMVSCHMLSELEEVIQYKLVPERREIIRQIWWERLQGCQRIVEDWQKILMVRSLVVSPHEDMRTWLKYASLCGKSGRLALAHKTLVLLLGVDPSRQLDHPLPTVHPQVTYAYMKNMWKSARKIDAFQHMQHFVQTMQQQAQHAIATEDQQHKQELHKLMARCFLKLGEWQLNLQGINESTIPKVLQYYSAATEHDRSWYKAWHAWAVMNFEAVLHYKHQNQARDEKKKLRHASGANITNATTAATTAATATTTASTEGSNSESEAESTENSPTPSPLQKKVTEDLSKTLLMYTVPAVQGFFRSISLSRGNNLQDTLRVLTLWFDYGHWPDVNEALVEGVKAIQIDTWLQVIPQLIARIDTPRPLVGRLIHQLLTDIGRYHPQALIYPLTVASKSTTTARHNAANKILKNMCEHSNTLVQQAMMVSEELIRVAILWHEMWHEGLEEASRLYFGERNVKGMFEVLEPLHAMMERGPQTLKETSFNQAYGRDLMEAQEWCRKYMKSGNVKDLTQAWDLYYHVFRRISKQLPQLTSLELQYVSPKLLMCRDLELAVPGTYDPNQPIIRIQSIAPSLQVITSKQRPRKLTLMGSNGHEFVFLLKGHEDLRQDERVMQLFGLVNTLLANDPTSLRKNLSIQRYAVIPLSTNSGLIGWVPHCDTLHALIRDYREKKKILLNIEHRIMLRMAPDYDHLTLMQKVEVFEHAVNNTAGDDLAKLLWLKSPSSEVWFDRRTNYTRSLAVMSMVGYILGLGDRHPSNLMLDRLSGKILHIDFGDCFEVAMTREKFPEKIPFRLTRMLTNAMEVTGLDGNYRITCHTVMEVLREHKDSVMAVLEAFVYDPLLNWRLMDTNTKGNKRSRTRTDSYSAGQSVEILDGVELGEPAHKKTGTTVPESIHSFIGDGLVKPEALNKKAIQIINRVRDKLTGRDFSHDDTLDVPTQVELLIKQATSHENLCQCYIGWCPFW
Method: The mTOR kinase activity was determined in the presence and absence of a test compound. A substrate peptide is phosphorylated by mTOR kinase activity. A complex of streptavidin-XL665 and anti-phosphorylated S6K (Thr389) antibody-anti-mouse IgG-cryptate binds to this phosphorylated peptide. At this time, irradiation of excitation light induces transfer of fluorescence resonance energy from the excited cryptate to XL665, emitting fluorescence at 665 nm. Utilizing this principle, mTOR kinase activity was detected. When the mTOR inhibitor is present, phosphorylation of a substrate peptide is inhibited, and the biding of the above-mentioned complex to the substrate peptide is inhibited.
A His tag was introduced into the N terminus end of the 1362 to 2549 amino acid portion on the C terminus side of human mTOR, and a cell line was prepared, so that His-tagged mTOR should be constantly expressed in a HEK293 cell. A cell lysate was prepared from this HEK293 cell which constantly expressed His-tagged mTOR (1362C), and a crude product of His-tagged mTOR (1362C) was obtained by a usual method utilizing His tag.
Subsequently, an mTOR enzyme solution was prepared which contained the above-mentioned His-tagged mTOR (1362C) enzyme and 8 μg/ml biotinylated peptide (Biotin-Ahx-[…]-amide [Sigma]), as well as 50 mM HEPES (pH 7.5), 20 mM MnCl2, 1 mg/ml BSA, a suitable amount of protease inhibitor cocktail (Complete EDTA free, Roche Ltd.), 100 ng/ml calyculin A, and 4 μg/ml cantharidin as other components.
The test compound was dissolved in dimethyl sulfoxide (DMSO) and serially diluted with 20 μm ATP solution (50 mM HEPES (pH 7.5), 20 μM ATP) to obtain concentrations required for the assay. 5 μl of this compound solution was added to each well of a 384-well small volume white plate manufactured by Greiner Bio-One Co., Ltd.
5 μl of the mTOR enzyme solution was added to the above-mentioned well containing the test compound and the resulting mixture was left standing for 3 hours room temperature to proceed an enzymatic reaction.
The same procedure was performed using a solution obtained by dissolving DMSO in 20 μM ATP solution as a positive control and a solution obtained by dissolving DMSO in 50 mM HEPES buffer (pH 7.5) as a negative control.
After the enzymatic reaction, 5 μl each of an europium solution (a solution obtained by dissolving anti-mouse IgG-cryptate [SCETI Medical Labo K.K.] and anti-phosphorylation S6K [Thr389] antibody [Cell Signaling Technology Inc.] in 50 mM HEPES [pH 7.5], 100 mM EDTA, and 1.5 mg/ml BSA) and an XL665 solution (a solution obtained by dissolving Streptavidin-XL 665 [SCETI Medical Labo K.K.] in 50 mM HEPES [pH 7.5], 100 mM EDTA, 0.8 M KF, and 1.5 mg/ml BSA) were added in this order and mixed and the resulting mixture was left standing overnight at 4° C. On the following day, the mixture was returned to room temperature and then irradiated with 337-nm excitation light and fluorescence at 620 and 665 nm was measured with RUBYstar (BMG LABTECH JAPAN Ltd.).
mTOR inhibitory activity (%) was calculated using the ratio calculated from the measured values as an indicator of enzyme activity. Here, the ratio was calculated by the following formula (1). Ratio=10,000×fluorescence at 665 nm/fluorescence at 620 nm (1)
mTOR enzyme inhibitory activity (%) was calculated by the following formula (2). mTOR enzyme inhibitory activity (%)=100×[(P−S)/(P−N)] (2) P: Ratio in positive control well N: Ratio in negative control well S: Ratio in well containing the test compound
Furthermore, an optimal curve was created using the concentrations of the serially diluted test compound solutions and mTOR enzyme inhibitory activity (%) at each concentration to obtain the concentration showing 50% inhibition as the IC50 value of mTOR enzyme inhibitory activity.

[2] = test system: human endometrial cancer cell strain AN3CA; assay: Cell growth inhibition test (MTT), AN3CA; assay type: cell-based; conditions: AN3-CA, 72 h, 3 days culture, read-out: concentration exhibiting anti-cell effect (GI50)
Method: (§1) After a cultured cancer cell strain was treated with a test compound for a predetermined period, a cell growth inhibition test was performed by measuring the living cell count by the 3-(4,5-dimethylthiazol-2-yl)-2,5-diphenyltetrazoliumbromide (MTT) method.
(§2) Human endometrial cancer cell strain AN3CA, human ovary cancer cell strain IGROV1, and human colon cancer cell strain HT29 were seeded in a 96-well plate at 5000, 1000, and 5000 cells, respectively, per well. On the following day of seeding, a test compound having a predetermined concentration was added and the culture was continued at 37° C. in 5% CO2 for 3 days. On the final day of culture, an MTT reaction solution was added and the resulting mixture was reacted for 4 hours to form formazan by dehydrogenases contained in living cells. Subsequently, the culture broth was removed, DMSO was added to solubilize formazan, and the amount of produced formazan was determined by measuring absorbance at 540 nm using a microplate reader.
(§3) Since correlations of the amount of produced formazan and the living cell count had been confirmed, the cell growth rate was calculated by the following formula. Cell growth rate (T/C %) after addition of test compound=100×[(B−C)/(A−C)] A: Absorbance of well not containing test compound (final culture day) B: Absorbance of well containing test compound (final culture day) C: Absorbance of well immediately before addition of test compound (following day of cell seeding)
(§4) Furthermore, the cell growth rate at each concentration of serially diluted test compound solutions was obtained, and the concentration of the test compound resulting in a 50% growth rate was obtained as the GI50 value from two concentrations including 50% therebetween and the growth rates were selected.

PI3Kα = PI3Kα (Homo sapiens, UniProt P42336); assay: PI3K kinase activity inhibition assay; assay type: biochemical; conditions: Kinase-Glo Plus ATP detection, read-out: IC50 against PI3K
Chain of PI3Kα (P42336 whole entry, species assumed): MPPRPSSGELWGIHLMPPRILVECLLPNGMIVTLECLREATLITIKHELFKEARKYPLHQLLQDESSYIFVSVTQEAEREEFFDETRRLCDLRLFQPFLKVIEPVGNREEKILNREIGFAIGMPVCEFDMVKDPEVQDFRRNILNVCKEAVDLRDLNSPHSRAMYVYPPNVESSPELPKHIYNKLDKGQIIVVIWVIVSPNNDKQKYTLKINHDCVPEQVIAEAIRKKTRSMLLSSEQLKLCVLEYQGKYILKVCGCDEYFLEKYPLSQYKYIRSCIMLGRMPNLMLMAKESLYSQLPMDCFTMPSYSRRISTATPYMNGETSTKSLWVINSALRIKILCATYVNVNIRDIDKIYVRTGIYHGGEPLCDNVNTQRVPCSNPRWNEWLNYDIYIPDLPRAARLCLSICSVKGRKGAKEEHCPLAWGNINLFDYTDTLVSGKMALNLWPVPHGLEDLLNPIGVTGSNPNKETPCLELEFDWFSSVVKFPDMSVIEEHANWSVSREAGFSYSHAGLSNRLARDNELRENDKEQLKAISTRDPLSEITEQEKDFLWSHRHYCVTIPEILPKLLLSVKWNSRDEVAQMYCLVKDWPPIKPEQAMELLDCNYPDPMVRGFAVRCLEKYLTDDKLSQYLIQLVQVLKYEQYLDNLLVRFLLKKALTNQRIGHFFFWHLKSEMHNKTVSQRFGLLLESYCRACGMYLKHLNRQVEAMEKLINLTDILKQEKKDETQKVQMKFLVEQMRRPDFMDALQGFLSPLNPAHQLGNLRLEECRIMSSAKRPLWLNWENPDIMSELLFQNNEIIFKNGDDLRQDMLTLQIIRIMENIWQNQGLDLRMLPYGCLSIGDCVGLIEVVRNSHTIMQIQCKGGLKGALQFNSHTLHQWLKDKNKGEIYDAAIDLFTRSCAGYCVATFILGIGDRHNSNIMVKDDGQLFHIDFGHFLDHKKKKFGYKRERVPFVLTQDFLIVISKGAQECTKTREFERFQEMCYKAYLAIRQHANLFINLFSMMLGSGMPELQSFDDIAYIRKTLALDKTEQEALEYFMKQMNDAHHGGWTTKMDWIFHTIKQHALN
Chain of PI3Kα (P27986 whole entry partner, species assumed): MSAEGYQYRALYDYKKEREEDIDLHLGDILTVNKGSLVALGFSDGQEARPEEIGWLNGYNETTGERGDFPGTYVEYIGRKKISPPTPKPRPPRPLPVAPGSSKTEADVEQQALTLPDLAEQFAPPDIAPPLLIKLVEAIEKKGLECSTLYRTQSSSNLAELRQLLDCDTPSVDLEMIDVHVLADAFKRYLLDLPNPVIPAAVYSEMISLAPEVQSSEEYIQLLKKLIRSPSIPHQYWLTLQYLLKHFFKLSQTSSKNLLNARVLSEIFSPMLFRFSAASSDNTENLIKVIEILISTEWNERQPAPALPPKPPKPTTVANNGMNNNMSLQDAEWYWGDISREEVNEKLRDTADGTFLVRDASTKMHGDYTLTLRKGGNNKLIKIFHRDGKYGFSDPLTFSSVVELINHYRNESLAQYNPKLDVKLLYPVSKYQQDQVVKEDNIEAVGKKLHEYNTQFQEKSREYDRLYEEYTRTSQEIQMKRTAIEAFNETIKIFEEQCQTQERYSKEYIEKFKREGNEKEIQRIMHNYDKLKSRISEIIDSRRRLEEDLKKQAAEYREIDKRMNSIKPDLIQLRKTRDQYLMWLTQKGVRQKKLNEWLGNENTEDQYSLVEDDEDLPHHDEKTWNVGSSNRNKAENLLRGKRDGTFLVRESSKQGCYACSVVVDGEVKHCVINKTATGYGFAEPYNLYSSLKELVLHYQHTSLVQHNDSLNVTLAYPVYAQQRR
Method: PI3Kα kinase activity was determined in the presence and absence of a test compound. The test compound was dissolved in DMSO and diluted serially with an ATP solution (30 μm ATP, 50 mM HEPES, pH 7.4, 50 mM NaCl, 0.05% CHAPS, 10 mM MgCl2, and 5 mM dithiothreitol [DTT]). First, 7 μl each of the serially diluted test compound solutions was added to each well of a black 384-well plate. Subsequently, 7 μl of a phosphatidylinositol 4,5-bisphosphate (PIP2) solution (45 μm PIP2, 50 mM HEPES, pH 7.4, 50 mM NaCl, 0.05% CHAPS, 10 mM MgCl2, and 5 mM DTT) was added to each well of the 384-well plate. Finally, 7 μl of a solution containing PI3Kα (50 nM PI3Kα, 50 mM HEPES, pH 7.4, 50 mM NaCl, 0.05% CHAPS, 10 mM MgCl2, and 5 mM DTT) was added to each well of the 384-well plate to initiate a reaction. The mixture was reacted at room temperature for 2 hours and then 21 μl of the Kinase-Glo Plusreagent (Promega) was, added to each well of the 384-well plate to terminate the reaction. After the termination of the reaction, the solution was left standing for 15 minutes and then luminescence was measured with ARVO (PerkinElmer Co., Ltd.) to detect ATP remaining in the reaction solution.
The amount of ATP consumed in the reaction was obtained for each well and used as an indicator of PI3Kαkinase activity. The PI3Kα kinase activity in wells not containing the test compound was calculated by the following formula (1). Furthermore, the PI3Kα kinase activity in wells containing the test compound was calculated by the following formula (2). The PI3Kα inhibitory activity (%) of the test compound was calculated by the following formula (3). PI3Kα kinase activity in wells not containing the test compound=B−C (1) PI3Kα kinase activity in wells containing the test compound=B−P (2) PI3Kα inhibitory activity (%) of test compound=100−100×[(B−P)/(B−C)] (3) B: Measured value in wells not containing PI3Kα or the test compound C: Measured value in wells containing PI3Kα and not containing the test compound P: Measured value in wells containing PI3Kα and the test compound
Furthermore, an optimal curve was calculated with Graph Pad Prism 4 using concentrations of the serially diluted test compound solutions and PI3Kα inhibitory activity (%) at each concentration to obtain the concentration showing 50% inhibition as the IC50 value of PI3Kα inhibitory activity.

[3] = test system: human ovary cancer cell strain IGROV1; assay: Cell growth inhibition test (MTT), IGROV1; assay type: cell-based; conditions: IGROV-1, 72 h, IGROV1, 3 days culture, read-out: concentration exhibiting anti-cell effect (GI50)
Method: as §1, §2, §3, §4

[4] = test system: human colon cancer cell strain HT29; assay: Cell growth inhibition test (MTT), HT29; assay type: cell-based; conditions: HT-29, 72 h, HT29, 3 days culture, read-out: concentration exhibiting anti-cell effect (GI50)
Method: as §1, §2, §3, §4

IC50 [1]	GI50 [2]	IC50 (PI3Kα)	GI50 [3]	GI50 [4]	Compound
0.1 to 0.5 µM	≤ 5 µM	< 0.01 µM	≤ 5 µM	≤ 5 µM	Cc1nc(N)ncc1-c1nc(N2CCOCC2)c2nc(N3CCC(C(N)=O)CC3)n(CC3CC3)c2n1 [Example 36, 1-[2-(2-Amino-4-methylpyrimidin-5-yl)-9-(cyclopropylmethyl)-6-morpholin-4-yl-9H-purin-8-yl]piperidine-4-carboxamide]
0.1 to 0.5 µM	≤ 5 µM	0.01 to 0.02 µM	≤ 5 µM	≤ 5 µM	Cc1nc(N)ncc1-c1nc(N2CCOCC2)c2nc(N3CCC(CO)CC3)n(CC3CC3)c2n1 [Example 37, {1-[2-(2-Amino-4-methylpyrimidin-5-yl)-9-(cyclopropylmethyl)-6-morpholin-4-yl-9H-purin-8-yl]piperidin-4-yl}methanol]
0.03 to 0.1 µM	≤ 5 µM	< 0.01 µM	≤ 5 µM	≤ 5 µM	CNCC(=O)N1CCN(c2nc3c(N4CCOCC4)nc(-c4cnc(N)nc4)nc3n2CC2CC2)CC1 [Example 41, 5-[9-(Cyclopropylmethyl)-8-{4-[(methylamino)acetyl]piperazin-1-yl}-6-morpholin-4-yl-9H-purin-2-yl]pyrimidin-2-amine]
0.01 to 0.03 µM	≤ 5 µM	< 0.01 µM	≤ 5 µM	≤ 5 µM	C[C@@H]1CN(c2nc3c(N4CCOCC4)nc(-c4cnc(N)nc4)nc3n2CC2CC2)CCN1 [Example 94, 5-{9-(Cyclopropylmethyl)-8-[(3R)-3-methylpiperazin-1-yl]-6-morpholin-4-yl-9H-purin-2-yl}pyrimidin-2-amine]

The remaining lines, values behind:

Compound	IC50 [1]	GI50 [2]	IC50 (PI3Kα)	GI50 [3]	GI50 [4]
CC1(C)CN(c2nc3c(N4CCOCC4)nc(-c4cnc(N)nc4)nc3n2CC(F)(F)F)CCN1C(=O)CO [Example 123]	< 0.01 µM	≤ 5 µM	0.01 to 0.02 µM	≤ 5 µM	≤ 5 µM
CC(=O)N1CCN(c2nc3c(N4CCOCC4)nc(-c4cnc(N)nc4)nc3n2CC(F)(F)F)CC1(C)C [Example 122, 5-[8-(4-Acetyl-3,3-dimethylpiperazin-1-yl)-6-morpholin-4-yl-9-(2,2,2-trifluoroethyl)-9H-purin-2-yl]pyrimidin-2-amine]	< 0.01 µM	≤ 5 µM	< 0.01 µM	≤ 5 µM	≤ 5 µM
CS(=O)(=O)N1CCN(c2nc3c(N4CCOCC4)nc(-c4cnc(N)nc4)nc3n2CC2CCOC2)CC1 (centres unmarked) [Example 5, 5-{8-[4-(Methylsulfonyl)piperazin-1-yl]-6-morpholin-4′-yl-9-(tetrahydrofuran-3-ylmethyl)-9H-purin-2-yl}pyrimidin-2-amine]	0.01 to 0.03 µM	≤ 5 µM	0.01 to 0.02 µM and 0.02 to 0.05 µM	≤ 5 µM	≤ 5 µM
CN(C)CC(=O)N1CCN(c2nc3c(N4CCOCC4)nc(-c4cnc(N)nc4)nc3n2CC2CC2)CC1 [Example 40, 5-[9-(Cyclopropylmethyl)-8-{4-[(dimethylamino)acetyl]piperazin-1-yl}-6-morpholin-4-yl-9H-purin-2-yl]pyrimidin-2-amine]	0.1 to 0.5 µM	≤ 5 µM	0.01 to 0.02 µM	≤ 5 µM	≤ 5 µM
Cc1nc(N)ncc1-c1nc(N2CCOCC2)c2nc(NCCN(C)C)n(CC3CC3)c2n1 [Example 21, N′-[2-(2-Amino-4-methylpyrimidin-5-yl)-9-(cyclopropylmethyl)-6-morpholin-4-yl-9H-purin-8-yl]-N,N-dimethylethane-1,2-diamine]	≥ 0.5 µM	≤ 5 µM	0.01 to 0.02 µM	≤ 5 µM	≤ 5 µM
CC(C)Cn1c(N2CCCN(S(C)(=O)=O)CC2)nc2c(N3CCOCC3)nc(-c3cnc(N)nc3)nc21 [Example 49, 5-{9-Isobutyl-8-[4-(methylsulfonyl)-1,4-diazepan-1-yl]-6-morpholin-4-yl-9H-purin-2-yl}pyrimidin-2-amine]	0.01 to 0.03 µM	≤ 5 µM	< 0.01 µM	≤ 5 µM	≤ 5 µM
